According to US20260306680A1, “RADIOLABELED COMPOUNDS TARGETING THE PROSTATE-SPECIFIC MEMBRANE ANTIGEN” (PROVINCIAL HEALTH SERVICES AUTHORITY, priority 2022, published 2026):
Where two headings read alike, the source gives them in different places. One block for each compound: values may come before it.

Key:
[1] = Ex vivo biodistribution in mice bearing LNCaP tumor xenografts; design: species or system mouse (male NOD-scid IL2Rg^null (NSG)); settings: mouse, iv, mean ± SD
Procedure: (§1) All imaging and biodistribution studies used male NOD-scid IL2Rg^null (NSG) mice and conducted according to the guidelines established by the Canadian Council on Animal Care and approved by Animal Ethics Committee of the University of British Columbia. For tumor inoculations, mice were anesthetized via inhalation of 2% isoflurane in oxygen and implanted subcutaneously with 5×10^6 LNCaP cells below the left shoulder. Imaging and biodistribution studies were performed only after tumors grew to 5-8 mm in diameter.
(§2) For PET/CT imaging studies, approximately 5 MBq of the ^18F-labeled tracer was injected through the tail vein. While for ex vivo biodistribution studies, mice were injected with around 2 MBq of the ^18F-labeled tracer through the tail vein. Mice were allowed to recover and roam freely in the cages after injecting the tracer. At 45 min post-injection, imaging mouse were sedated again and positioned on the scanner. A 10 min CT scan was conducted first to allow for localization and attenuation correction for later reconstruction of PET images. A 10 min PET image was acquired following CT scan. Heating pads were used during the entire procedure to keep the mice warm and circulate the blood. At 1 h post-injection, all mice for biodistribution study were euthanized with blood drawn from heart, and all tissues of interest were collected, rinsed with PBS, blotted dry, weighed, and counted using an automated gamma counter. The uptake in each organ/tissue was normalized to the injected dose and expressed as the percentage of the injected dose per gram of tissue (% ID/g).
(§3) Representative maximum intensity projection PET images of ^18F-KLF1007-pyridine-BF3 and ^18F-KL01040 acquired at 1 h post-injection from LNCaP tumor-bearing mice is enumerated in Table 4 and shown in FIG. 1. Representative maximum intensity projection PET images of ^18F-KL01120 and ^18F-KL01130 acquired at 1 h post-injection from LNCaP tumor-bearing mice is also enumerated in Table 5 and shown in FIG. 2 (^18F-KL1120) and enumerated in Table 6 and shown in FIG. 3 (^18F-KL01130).

LNCaP tumor xenografts = test: as above; design: species or system mouse (male NOD-scid IL2Rg^null (NSG)); settings: mean ± SD
Procedure: as §1, §2, §3

[2] = adrenal glands, 1 h Blocked (co-injection of 2-PMPA, 0.5 mg), read-out: Adrenal Glands uptake
[3] = adrenal glands, 1 h post-injection, read-out: Adrenal Glands uptake
[4] = blood, 1 h Blocked (co-injection of 2-PMPA, 0.5 mg), read-out: Blood uptake
[5] = blood, 1 h post-injection, read-out: Blood uptake
[6] = bone, 1 h Blocked (co-injection of 2-PMPA, 0.5 mg), read-out: Bone uptake
[7] = bone, 1 h post-injection, read-out: Bone uptake
[8] = brain, 1 h Blocked (co-injection of 2-PMPA, 0.5 mg), read-out: Brain uptake
[9] = brain, 1 h post-injection, read-out: Brain uptake
[10] = fat, 1 h Blocked (co-injection of 2-PMPA, 0.5 mg), read-out: Fat uptake
[11] = fat, 1 h post-injection, read-out: Fat uptake
[12] = heart, 1 h Blocked (co-injection of 2-PMPA, 0.5 mg), read-out: Heart uptake
[13] = heart, 1 h post-injection, read-out: Heart uptake
[14] = kidneys, 1 h Blocked (co-injection of 2-PMPA, 0.5 mg), read-out: Kidneys uptake
[15] = kidneys, 1 h post-injection, read-out: Kidneys uptake
[16] = lacrimal glands, 1 h Blocked (co-injection of 2-PMPA, 0.5 mg), read-out: Lacrimal Glands uptake
[17] = lacrimal glands, 1 h post-injection, read-out: Lacrimal Glands uptake
[18] = large intestine, 1 h Blocked (co-injection of 2-PMPA, 0.5 mg), read-out: Large Intestine uptake
[19] = large intestine, 1 h post-injection, read-out: Large Intestine uptake
[20] = liver, 1 h Blocked (co-injection of 2-PMPA, 0.5 mg), read-out: Liver uptake
[21] = liver, 1 h post-injection, read-out: Liver uptake
[22] = lncap tumor, 1 h Blocked (co-injection of 2-PMPA, 0.5 mg), read-out: LNCaP Tumor uptake
[23] = lncap tumor, 1 h post-injection, read-out: LNCaP Tumor uptake
[24] = lungs, 1 h Blocked (co-injection of 2-PMPA, 0.5 mg), read-out: Lungs uptake
[25] = lungs, 1 h post-injection, read-out: Lungs uptake
[26] = muscle, 1 h Blocked (co-injection of 2-PMPA, 0.5 mg), read-out: Muscle uptake
[27] = muscle, 1 h post-injection, read-out: Muscle uptake
[28] = pancreas, 1 h Blocked (co-injection of 2-PMPA, 0.5 mg), read-out: Pancreas uptake
[29] = pancreas, 1 h post-injection, read-out: Pancreas uptake
[30] = salivary glands, 1 h Blocked (co-injection of 2-PMPA, 0.5 mg), read-out: Salivary Glands uptake
[31] = salivary glands, 1 h post-injection, read-out: Salivary Glands uptake
[32] = seminal gland, 1 h Blocked (co-injection of 2-PMPA, 0.5 mg), read-out: Seminal Gland uptake
[33] = seminal glands, 1 h post-injection, read-out: Seminal Glands uptake
[34] = small intestine, 1 h Blocked (co-injection of 2-PMPA, 0.5 mg), read-out: Small Intestine uptake
[35] = small intestine, 1 h post-injection, read-out: Small Intestine uptake
[36] = spleen, 1 h Blocked (co-injection of 2-PMPA, 0.5 mg), read-out: Spleen uptake
[37] = spleen, 1 h post-injection, read-out: Spleen uptake
[38] = stomach, 1 h Blocked (co-injection of 2-PMPA, 0.5 mg), read-out: Stomach uptake
[39] = stomach, 1 h post-injection, read-out: Stomach uptake
[40] = testes, 1 h Blocked (co-injection of 2-PMPA, 0.5 mg), read-out: Testes uptake
[41] = testes, 1 h post-injection, read-out: Testes uptake
[42] = thyroid, 1 h Blocked (co-injection of 2-PMPA, 0.5 mg), read-out: Thyroid uptake
[43] = thyroid, 1 h post-injection, read-out: Thyroid uptake
[44] = 1 h Blocked (co-injection of 2-PMPA, 0.5 mg)

- tissue uptake at 1 h [1, 2]: 0.39 ± 0.17 %ID/g
- tissue uptake at 1 h [1, 3]: 0.59 ± 0.06 %ID/g
- tissue uptake at 1 h [1, 4]: 1.78 ± 0.12 %ID/g
- tissue uptake at 1 h [1, 5]: 1.2 ± 0.26 %ID/g
- tissue uptake at 1 h [1, 6]: 0.57 ± 0.16 %ID/g
- tissue uptake at 1 h [1, 7]: 0.52 ± 0.17 %ID/g
- tissue uptake at 1 h [1, 8]: 0.04 %ID/g
- tissue uptake at 1 h [1, 9]: 0.04 ± 0.01 %ID/g
- tissue uptake at 1 h [1, 10]: 0.33 ± 0.1 %ID/g
- tissue uptake at 1 h [1, 11]: 0.22 ± 0.09 %ID/g
- tissue uptake at 1 h [1, 12]: 0.45 ± 0.05 %ID/g
- tissue uptake at 1 h [1, 13]: 0.34 ± 0.07 %ID/g
- tissue uptake at 1 h [1, 14]: 4.77 ± 0.3 %ID/g
- tissue uptake at 1 h [1, 15]: 19 ± 5.04 %ID/g
- tissue uptake at 1 h [1, 16]: 0.04 ± 0.02 %ID/g
- tissue uptake at 1 h [1, 17]: 0.1 ± 0.06 %ID/g
- tissue uptake at 1 h [1, 18]: 0.26 ± 0.1 %ID/g
- tissue uptake at 1 h [1, 19]: 0.2 ± 0.1 %ID/g
- tissue uptake at 1 h [1, 20]: 0.67 ± 0.07 %ID/g
- tissue uptake at 1 h [1, 21]: 0.47 ± 0.06 %ID/g
- tissue uptake at 1 h [1, 22]: 2.11 ± 0.02 %ID/g
- tissue uptake at 1 h [1, 23]: 8.01 ± 0.9 %ID/g
- tissue uptake at 1 h [1, 24]: 1.22 ± 0.17 %ID/g
- tissue uptake at 1 h [1, 25]: 0.96 ± 0.19 %ID/g
- tissue uptake at 1 h [1, 26]: 0.2 ± 0.02 %ID/g
- tissue uptake at 1 h [1, 27]: 0.34 ± 0.24 %ID/g
- tissue uptake at 1 h [1, 28]: 0.32 ± 0.04 %ID/g
- tissue uptake at 1 h [1, 29]: 0.21 ± 0.05 %ID/g
- tissue uptake at 1 h [1, 30]: 0.49 ± 0.14 %ID/g
- tissue uptake at 1 h [1, 31]: 0.52 ± 0.18 %ID/g
- tissue uptake at 1 h [1, 32]: 0.22 ± 0.06 %ID/g
- tissue uptake at 1 h [1, 33]: 0.15 ± 0.04 %ID/g
- tissue uptake at 1 h [1, 34]: 2.4 ± 0.36 %ID/g
- tissue uptake at 1 h [1, 35]: 2.01 ± 0.6 %ID/g
- tissue uptake at 1 h [1, 36]: 0.31 ± 0.06 %ID/g
- tissue uptake at 1 h [1, 37]: 0.36 ± 0.09 %ID/g
- tissue uptake at 1 h [1, 38]: 0.36 ± 0.15 %ID/g
- tissue uptake at 1 h [1, 39]: 0.19 ± 0.11 %ID/g
- tissue uptake at 1 h [1, 40]: 0.41 ± 0.05 %ID/g
- tissue uptake at 1 h [1, 41]: 0.29 ± 0.05 %ID/g
- tissue uptake at 1 h [1, 42]: 0.48 ± 0.03 %ID/g
- tissue uptake at 1 h [1, 43]: 0.38 ± 0.16 %ID/g
- Tumor:Muscle uptake ratio (LNCaP tumor xenografts; [44]): 10.4 ± 1.31
- Tumour:Blood uptake ratio (LNCaP tumor xenografts; [44]): 1.19 ± 0.12
- Tumour:Bone uptake ratio (LNCaP tumor xenografts; [44]): 3.89 ± 1.05
- Tumour:Kidney uptake ratio (LNCaP tumor xenografts; [44]): 0.44 ± 0.05
- Tumor:Muscle uptake ratio (LNCaP tumor xenografts; 1 h post-injection): 35.7 ± 5.75
- Tumour:Blood uptake ratio (LNCaP tumor xenografts; 1 h post-injection): 6.93 ± 1.54
- Tumour:Bone uptake ratio (LNCaP tumor xenografts; 1 h post-injection): 14.6 ± 4.27
- Tumour:Kidney uptake ratio (LNCaP tumor xenografts; 1 h post-injection): 0.59 ± 0.35
Structure (SMILES): O=C(O)CCC[C@H](NC(=O)N[C@@H](CCCCNC(=O)[C@H](Cc1c2ccccc2cc2ccccc12)NC(=O)[C@H]1CC[C@H](CNC(=O)CNC(=O)[C@H](CCCCNC(=O)c2ccc(F)nc2)NC(=O)CN(CC(=O)O)CC(=O)O)CC1)C(=O)O)C(=O)O [^18F-KL01130]

- tissue uptake at 1 h [1, 2]: 0.48 ± 0.21 %ID/g
- tissue uptake at 1 h [1, 3]: 11.2 ± 4.71 %ID/g
- tissue uptake at 1 h [1, 4]: 0.86 ± 0.2 %ID/g
- tissue uptake at 1 h [1, 5]: 0.71 ± 0.14 %ID/g
- tissue uptake at 1 h [1, 6]: 0.35 ± 0.23 %ID/g
- tissue uptake at 1 h [1, 7]: 0.92 ± 0.46 %ID/g
- tissue uptake at 1 h [1, 8]: 0.03 %ID/g
- tissue uptake at 1 h [1, 9]: 0.05 ± 0.01 %ID/g
- tissue uptake at 1 h [1, 10]: 0.18 ± 0.05 %ID/g
- tissue uptake at 1 h [1, 11]: 1.57 ± 0.55 %ID/g
- tissue uptake at 1 h [1, 12]: 0.35 ± 0.06 %ID/g
- tissue uptake at 1 h [1, 13]: 2.9 ± 0.66 %ID/g
- tissue uptake at 1 h [1, 14]: 4.29 ± 1.34 %ID/g
- tissue uptake at 1 h [1, 15]: 88.1 ± 17.4 %ID/g
- tissue uptake at 1 h [1, 16]: 0.07 ± 0.05 %ID/g
- tissue uptake at 1 h [1, 17]: 0.06 ± 0.03 %ID/g
- tissue uptake at 1 h [1, 18]: 0.25 ± 0.1 %ID/g
- tissue uptake at 1 h [1, 19]: 1.11 ± 0.42 %ID/g
- tissue uptake at 1 h [1, 20]: 0.59 ± 0.1 %ID/g
- tissue uptake at 1 h [1, 21]: 2.64 ± 0.57 %ID/g
- tissue uptake at 1 h [1, 22]: 1.87 ± 0.46 %ID/g
- tissue uptake at 1 h [1, 23]: 6.21 ± 1.25 %ID/g
- tissue uptake at 1 h [1, 24]: 0.81 ± 0.18 %ID/g
- tissue uptake at 1 h [1, 25]: 4.1 ± 0.71 %ID/g
- tissue uptake at 1 h [1, 26]: 0.27 ± 0.18 %ID/g
- tissue uptake at 1 h [1, 27]: 0.9 ± 0.2 %ID/g
- tissue uptake at 1 h [1, 28]: 0.27 ± 0.07 %ID/g
- tissue uptake at 1 h [1, 29]: 2.22 ± 0.66 %ID/g
- tissue uptake at 1 h [1, 30]: 0.35 ± 0.08 %ID/g
- tissue uptake at 1 h [1, 31]: 9.18 ± 2.36 %ID/g
- tissue uptake at 1 h [1, 32]: 0.76 ± 0.19 %ID/g
- tissue uptake at 1 h [1, 33]: 0.98 ± 0.42 %ID/g
- tissue uptake at 1 h [1, 34]: 1.83 ± 0.37 %ID/g
- tissue uptake at 1 h [1, 35]: 4.51 ± 0.87 %ID/g
- tissue uptake at 1 h [1, 36]: 0.29 ± 0.03 %ID/g
- tissue uptake at 1 h [1, 37]: 22.1 ± 2.92 %ID/g
- tissue uptake at 1 h [1, 38]: 0.14 ± 0.06 %ID/g
- tissue uptake at 1 h [1, 39]: 0.68 ± 0.17 %ID/g
- tissue uptake at 1 h [1, 40]: 0.28 ± 0.07 %ID/g
- tissue uptake at 1 h [1, 41]: 0.92 ± 0.29 %ID/g
- tissue uptake at 1 h [1, 42]: 0.33 ± 0.08 %ID/g
- tissue uptake at 1 h [1, 43]: 4.53 ± 0.74 %ID/g
- Tumor:Muscle uptake ratio (LNCaP tumor xenografts; [44]): 9.96 ± 3.13
- Tumour:Blood uptake ratio (LNCaP tumor xenografts; [44]): 2.21 ± 0.46
- Tumour:Bone uptake ratio (LNCaP tumor xenografts; [44]): 8.46 ± 4.80
- Tumour:Kidney uptake ratio (LNCaP tumor xenografts; [44]): 0.45 ± 0.05
- Tumor:Muscle uptake ratio (LNCaP tumor xenografts; 1 h post-injection): 6.58 ± 1.38
- Tumour:Blood uptake ratio (LNCaP tumor xenografts; 1 h post-injection): 8.41 ± 2.02
- Tumour:Bone uptake ratio (LNCaP tumor xenografts; 1 h post-injection): 9.31 ± 3.39
- Tumour:Kidney uptake ratio (LNCaP tumor xenografts; 1 h post-injection): 0.07 ± 0.02
Structure (SMILES): O=C(O)CC[C@H](NC(=O)N[C@@H](CCCCNC(=O)[C@H](Cc1c2ccccc2cc2ccccc12)NC(=O)[C@H]1CC[C@H](CNC(=O)[C@H](CCNC(=O)c2ccc(F)nc2)NC(=O)CCC(=O)N(CC(=O)O)CC(=O)O)CC1)C(=O)O)C(=O)O [^18F-KL01120]
